Data taken from publication PMC8991199, “Promiscuity mapping of the S100 protein family using a high-throughput holdup assay” (Scientific Reports, 2022).
Substitutions are numbered along the chain they refer to.

Assays:
Type in all cases: binding
S100A13 = target: T1, S100A13 (Homo sapiens, UniProt Q99584); test: direct fluorescence polarization (FP), S100A13; conditions: for Kd: S100A13, 50 nM labeled foldamer, 20 mM HEPES pH 7.5, 150 mM NaCl, 1 mM CaCl2, 0.5 mM TCEP, 0.01% Tween20, quadratic fit, mean ± SEM, three technical repeats, threshold 1 mM
T1 sequence (Q99584 1-98): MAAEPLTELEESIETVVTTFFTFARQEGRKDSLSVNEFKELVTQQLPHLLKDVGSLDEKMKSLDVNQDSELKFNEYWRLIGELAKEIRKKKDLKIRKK
Procedure: (§1) HTP (and also low-throughput) measurements generally need to be validated by an orthogonal approach to eliminate experimental artifacts. […] This way, we chose WL, IF, WW, YF, IL, VL, TW, RF, RR, TI, TM, and after resynthesizing with a fluorescent label at the C-terminus (Figs. S15–S26, Table S1), the S100ome was tested against the labeled foldamers by direct fluorescence polarization (FP) (Fig. 3A). In this assay, the association of the fluorescently labeled foldamer and the S100 protein of interest is monitored, through the change in polarization of the emitted light by the fluorophore upon the binding event. In direct FP, the presence of the fluorophore might change the binding affinity of some foldamers. […] Nevertheless, we assumed that the fluorophore would affect all foldamers that target the same binding site to the same degree, because the foldamer scaffold is rigid. Defining the threshold of detection at the dissociation constant of 1 mM, we identified 87 interactions between the selected foldamer fragments and the S100ome out of 220 possible interactions (Table 1, Fig. S4-14).
(§2) Briefly, S100 proteins were cloned into a modified pET15b vector with a TEV protease cleavable N-terminal His6-tag and expressed in Escherichia coli BL21 (DE3) cells, followed by Ni^2+-affinity chromatography. For HU assay, S100 proteins were further purified by either hydrophobic interaction chromatography or ion exchange chromatography without the cleavage of the N-terminal His6-tag applying standard conditions. For direct FP measurements, the N-terminal His6-tag was cleaved, and the S100 proteins were purified by hydrophobic interaction chromatography, ion exchange chromatography or size exclusion chromatography. The quality of the recombinant proteins was checked by SDS-PAGE analysis in all cases. The concentration of the recombinant S100 proteins was determined by UV spectrophotometry using the absorbance of Tyr and Trp residues.
(§3) In direct fluorescence polarization assays, S100 proteins were diluted in a buffer containing 50 nM labeled foldamer, 20 mM HEPES pH 7.5, 150 mM NaCl, 1 mM CaCl2, 0.5 mM TCEP and 0.01% Tween20. The dilution series (50 µl) were divided into three technical repeats and transferred (15 µl) to a 384-well microplate. In competitive fluorescence polarization assays, the buffer applied in direct measurements was supplemented with the S100 protein of interest to reach a saturation of 60–80%. This mixture was titrated with the competitor (i.e. the unlabeled peptide). Fluorescence polarization was measured in 8 different S100 concentrations (one of which contained no S100 protein) on a Synergy H4 plate reader using 485 ± 20 nm and 528 ± 20 nm band-pass filters for excitation and emission, respectively. The Kd values were obtained by fitting the data from the FP measurements with the python-based ProFit software using quadratic and competitive binding equation for direct and competitive FP, respectively. The detection threshold was based on two parameters. First, we rejected all fitted dissociation constants above 1 mM.

S100A3 = target: T2, S100A3 (Homo sapiens, UniProt P33764); test: direct fluorescence polarization (FP), S100A3; conditions: S100A3, 50 nM labeled foldamer, 20 mM HEPES pH 7.5, 150 mM NaCl, 1 mM CaCl2, 0.5 mM TCEP, 0.01% Tween20, quadratic fit, mean ± SEM, three technical repeats, threshold 1 mM
T2 sequence (P33764 1-101): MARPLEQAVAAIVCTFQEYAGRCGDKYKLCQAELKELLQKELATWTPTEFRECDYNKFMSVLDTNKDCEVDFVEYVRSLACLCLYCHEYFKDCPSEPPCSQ
Procedure: as §1, §2, §3

S100A7 = target: T3, S100A7 (Homo sapiens, UniProt P31151); test: direct fluorescence polarization (FP), S100A7; conditions: S100A7, 50 nM labeled foldamer, 20 mM HEPES pH 7.5, 150 mM NaCl, 1 mM CaCl2, 0.5 mM TCEP, 0.01% Tween20, quadratic fit, mean ± SEM, three technical repeats, threshold 1 mM
T3 sequence (P31151 1-101): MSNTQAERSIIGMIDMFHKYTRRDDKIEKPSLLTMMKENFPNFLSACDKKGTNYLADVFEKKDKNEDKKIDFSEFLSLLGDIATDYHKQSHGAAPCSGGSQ
Procedure: as §1, §2, §3

S100Z = target: T4, S100Z (Homo sapiens, UniProt Q8WXG8); test: direct fluorescence polarization (FP), S100Z; conditions: 50 nM labeled foldamer, 20 mM HEPES pH 7.5, 150 mM NaCl, 1 mM CaCl2, 0.5 mM TCEP, 0.01% Tween20, quadratic fit, mean ± SEM, three technical repeats, threshold 1 mM
T4 sequence (Q8WXG8 1-99): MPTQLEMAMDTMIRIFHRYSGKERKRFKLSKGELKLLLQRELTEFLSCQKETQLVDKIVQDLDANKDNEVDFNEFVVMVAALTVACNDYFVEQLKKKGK
Excerpt: (§4) HTP (and also low-throughput) measurements generally need to be validated by an orthogonal approach to eliminate experimental artifacts. […] In this assay, the association of the fluorescently labeled foldamer and the S100 protein of interest is monitored, through the change in polarization of the emitted light by the fluorophore upon the binding event. In direct FP, the presence of the fluorophore might change the binding affinity of some foldamers. […] Nevertheless, we assumed that the fluorophore would affect all foldamers that target the same binding site to the same degree, because the foldamer scaffold is rigid.
as §2, §3

S100A2 = S100A2 (Homo sapiens, UniProt P29034); test: direct fluorescence polarization (FP), S100A2; conditions: S100A2, 50 nM labeled foldamer, 20 mM HEPES pH 7.5, 150 mM NaCl, 1 mM CaCl2, 0.5 mM TCEP, 0.01% Tween20, quadratic fit, mean ± SEM, three technical repeats, threshold 1 mM
Excerpt: as §4, §2, §3

S100P = target: T5, S100P (Homo sapiens, UniProt P25815); test: direct fluorescence polarization (FP), S100P; conditions: 50 nM labeled foldamer, 20 mM HEPES pH 7.5, 150 mM NaCl, 1 mM CaCl2, 0.5 mM TCEP, 0.01% Tween20, quadratic fit, mean ± SEM, three technical repeats, threshold 1 mM
T5 sequence (P25815 1-95): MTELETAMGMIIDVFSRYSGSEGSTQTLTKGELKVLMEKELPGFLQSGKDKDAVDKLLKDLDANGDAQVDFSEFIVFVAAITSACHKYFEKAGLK
Excerpt: as §4, §2, §3

S100A15 = target: T6, S100A15 (Homo sapiens, UniProt Q86SG5); test: direct fluorescence polarization (FP), S100A15; conditions: S100A15, 50 nM labeled foldamer, 20 mM HEPES pH 7.5, 150 mM NaCl, 1 mM CaCl2, 0.5 mM TCEP, 0.01% Tween20, quadratic fit, mean ± SEM, three technical repeats, threshold 1 mM
T6 sequence (Q86SG5 1-101): T3 sequence (P31151 1-101) with R22G, D25G, T52I, N53H, D57T, T84A
Procedure: as §1, §2, §3

S100A6 = S100A6 (Homo sapiens, UniProt P06703); test: direct fluorescence polarization (FP), S100A6
Excerpt: as §4, §2, §3

Sequence of S100A2 (P29034 whole entry): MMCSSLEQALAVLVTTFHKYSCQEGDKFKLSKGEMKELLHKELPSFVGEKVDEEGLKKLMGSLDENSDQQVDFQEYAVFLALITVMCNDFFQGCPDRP

SMILES: N=C(N)NCCC[C@@H](CC(=O)N[C@H]1CCCC[C@@H]1C(=O)N[C@H]1CCCC[C@@H]1C(=O)N[C@H](CC(=O)N[C@H]1CCCC[C@@H]1C(=O)NCC(=O)N[C@@H](CCCCNC(=O)c1ccc2c(c1)C1(OC2=O)c2ccc(O)cc2Oc2cc(O)ccc21)C(N)=O)Cc1ccccc1)NC(=O)[C@H]1CCCC[C@@H]1N [fRF]
- Kd (S100A13): > 1 mM
- Kd (S100A3): > 1 mM
- Kd (S100A7): > 1 mM
- Kd (S100Z): 0.89 ± 0.12 mM
- Kd (S100A2): 0.34 ± 0.021 mM
- Kd (S100P): 0.19 ± 0.017 mM
- Kd (S100A15): > 1 mM

SMILES: CSCC[C@@H](CC(=O)N[C@H]1CCCC[C@@H]1C(=O)NCC(=O)N[C@@H](CCCCNC(=O)c1ccc2c(c1)C1(OC2=O)c2ccc(O)cc2Oc2cc(O)ccc21)C(N)=O)NC(=O)[C@H]1CCCC[C@@H]1NC(=O)[C@H]1CCCC[C@@H]1NC(=O)C[C@@H](NC(=O)[C@H]1CCCC[C@@H]1N)[C@@H](C)O [fTM]
- Kd (S100A13): > 1 mM
- Kd (S100A3): > 1 mM
- Kd (S100A7): > 1 mM
- Kd (S100Z): > 1 mM
- Kd (S100A2): > 1 mM
- Kd (S100P): > 1 mM
- Kd (S100A15): > 1 mM
- Kd (S100A6): 0.517 ± 0.057 mM

SMILES: CC[C@H](C)[C@@H](CC(=O)N[C@H]1CCCC[C@@H]1C(=O)NCC(=O)N[C@@H](CCCCNC(=O)c1ccc2c(c1)C1(OC2=O)c2ccc(O)cc2Oc2cc(O)ccc21)C(N)=O)NC(=O)[C@H]1CCCC[C@@H]1NC(=O)[C@H]1CCCC[C@@H]1NC(=O)C[C@@H](NC(=O)[C@H]1CCCC[C@@H]1N)[C@@H](C)O [fTI]
- Kd (S100A13): > 1 mM
- Kd (S100A3): > 1 mM
- Kd (S100A7): > 1 mM
- Kd (S100Z): > 1 mM
- Kd (S100A2): > 1 mM
- Kd (S100P): > 1 mM
- Kd (S100A15): > 1 mM
- Kd (S100A6): 0.699 ± 0.063 mM

SMILES: N=C(N)NCCC[C@@H](CC(=O)N[C@H]1CCCC[C@@H]1C(=O)NCC(=O)N[C@@H](CCCCNC(=O)c1ccc2c(c1)C1(OC2=O)c2ccc(O)cc2Oc2cc(O)ccc21)C(N)=O)NC(=O)[C@H]1CCCC[C@@H]1NC(=O)[C@H]1CCCC[C@@H]1NC(=O)C[C@H](CCCNC(=N)N)NC(=O)[C@H]1CCCC[C@@H]1N [fRR]
- Kd (S100A13): > 1 mM
- Kd (S100A3): > 1 mM
- Kd (S100A7): > 1 mM
- Kd (S100Z): > 1 mM
- Kd (S100A2): 0.061 ± 0.0055 mM
- Kd (S100P): > 1 mM
- Kd (S100A15): > 1 mM
- Kd (S100A6): > 1 mM

SMILES: NC(=O)[C@H](CCCCNC(=O)c1ccc2c(c1)C1(OC2=O)c2ccc(O)cc2Oc2cc(O)ccc21)NC(=O)CNC(=O)[C@H]1CCCC[C@@H]1NC(=O)C[C@H](Cc1ccccc1)NC(=O)[C@H]1CCCC[C@@H]1NC(=O)[C@H]1CCCC[C@@H]1NC(=O)C[C@H](Cc1ccc(O)cc1)NC(=O)[C@H]1CCCC[C@@H]1N [fYF]
- increase of the polarization upon adding S100A13 (S100A13; Fig. 3A right panel): only a minor linear increase of the polarization
- Kd (S100A13): > 1 mM
- Kd (S100A3): > 1 mM
- Kd (S100A7): > 1 mM
- Kd (S100Z): > 1 mM
- Kd (S100A2): 0.026 ± 0.0021 mM
- Kd (S100P): 0.079 ± 0.0057 mM
- Kd (S100A15): > 1 mM
